Test results from patent US20060183670A1, “Autoantigen composition” (priority 2001, published 2006).

Tests used:
NOD scid/scid mice = assay: Adoptive transfer of splenocytes from vaccinated NOD mice into NOD scid/scid mice; assay type: in vivo; conditions: for effect on incidence of diabetes in NOD scid/scid adoptive transfer model (in words): antigen in IFA; for scid/scid recipient mice that became diabetic: antigen in IFA sc. to NOD donors at 3, 5 and 7 weeks, splenocytes cotransferred with untreated NOD splenocytes, by the 75th day after adoptive transfer, 16 mice/group
Experimental: To test the efficacy of autoantigens in IFA, NOD mice were vaccinated with human recombinant GAD65 (300 μg/mice) in IFA (total volume 0.1 ml), human insulin B-chain (20.1 μg/mice) in IFA (total volume 0.1 ml) and sham protein (Lysozyme, 200 μg/mice) in IFA (total volume 0.1 ml) sc. in the inguinal areas at 3, 5 and 7 weeks of age. At 9 weeks of age the treated mice were sacrificed and their splenocytes (1.0×10^7 cells) were cotransfered with splenocytes from 9 weeks old untreated NOD mice (1.0×10^7 cells) into 9-11 weeks old NOD scid/scid mice (16 mice/group; total 2.0×10^7 cells/mice). Control group received splenocytes (2.0×10^7 cells/mice) from untreated NOD mice.

NOD mice [1] = assay: Histological insulitis grading of pancreases of vaccinated NOD mice; assay type: in vivo; conditions: antigen in IFA; for mean insulitis score: 0-4 scale, pancreases at the time of adoptive transfer (9 weeks of age)
Experimental: Histological studies were performed on the pancreases of the vaccinated mice at the time of adoptive transfer.

mice = conditions: mouse, in vivo
Text: In our animal study where we used IFA with human insulin B-chain or with human GAD65 protein, the mice were carefully observed for any adverse effect.

NOD mice [2] = conditions: cited from earlier work
human = conditions: pilot human trial; Keller et al. 1993; cited from earlier work

GAD65: Human recombinant GAD65, 585 amino acid β-cell autoantigen (SEQ ID NO:2), given in IFA
effect on incidence of diabetes in NOD scid/scid adoptive transfer model (in words) (NOD scid/scid mice): significantly reduces the incidence of diabetes | scid/scid recipient mice that became diabetic (NOD scid/scid mice): 4/16 | mean insulitis score (NOD mice [1]): 1.31 | effect on insulitis in NOD mice (in words) (NOD mice [1]): reduced insulitis | adverse effects, general and local (mice): well tolerated without any detectable side effects | Th1/Th2 balance (NOD mice [2]; nasal administration, Tian et al. 1996): change in Th1/Th2 balance in favor of Th2 ‘protective’ cells response

Lysozyme [reference compound]
effect on incidence of diabetes in NOD scid/scid adoptive transfer model (in words) (NOD scid/scid mice): not effective | scid/scid recipient mice that became diabetic (NOD scid/scid mice): all | mean insulitis score (NOD mice [1]): 2.64

Insulin: β-cell specific major protein, moderately immunogenic when used alone
development of diabetes mellitus (human): delaying the development of diabetes mellitus

human recombinant insulin B-chain: Literature recombinant human insulin B-chain given in IFA (Ramiya et al.) [reference compound]
cytokine pattern in NOD mice islets (NOD mice [2]; in IFA, Ramiya et al. 1996): Th2 cytokine pattern
